{"source": "patent US20240166649A1", "about": "“DIHYDROPYRIMIDINE COMPOUND, PREPARATION METHOD THEREFOR AND APPLICATION THEREOF” (Shanghai Visonpharma Co., Ltd., priority 2021, published 2024)", "data": [{"test_system": "HBV (hepatitis B virus) in HepG2.2.15 cells", "test": "Cell-based anti-viral activity assay (HBV DNA in supernatant by quantitative PCR)", "conditions": "120 h, anti-HBV activity, HepG2.2.15 cells, 5 days, read-out: EC50 (HepG2.2.15)", "procedure": "Cell-Based Anti-Viral Activity Assay\nThe Invention determined the anti-HBV (hepatitis B virus) activity of compounds in HepG2.2.15 cells (Table 1).\nHepG2.2.15 is a cell line stably transfected with the HBV genome. HepG2.2.15 cells were cultured in DMEM (1X) with 10% fetal bovine serum (Corning), 100 U penicillin (Gibico), 100 μg/mL streptomycin (Gibico), 250 μg/mL geneticin (Gibco) and GlutaMAXTM-I medium (Invitrogen).\nHepG2.2.15 cells were seeded into 96-well plates (4×10^4 cells in 100 μL of medium per well) and incubated overnight at 37° C. The test compounds were weighed and prepared as 10 mM stock solution with DMSO. The stock solutions of the compounds were diluted by a gradient of 3.16 times with DMSO, and then diluted by a gradient of 3.16 times with medium for 50 times. Finally, the diluted compound solutions were added to the cell plate with a total volume of 200 μL and the final DMSO concentration was 1%. The 96-well culture plates loaded with drugs were transferred to an incubator at 37° C. for 5 days. […] nucleic acid releasing agent was added to 96-well PCR reaction plate, and 2 μL of cell supernatant or HBV quantitative standards were added to the corresponding Wells. Centrifuged the plates to fully mix, and incubated at room temperature for 10 min to fully release nucleic acid. Quantified HBV DNA content by fluorescent quantitative PCR (CFX Connect Real-Time System) using Sanxiang Bio hepatitis B virus fluorescent quantitative diagnostic kit.\nThe standard curve was established by taking the logarithm of the copy number (IU/ml) of the HBV standard sample (log 10) as the abscordinate and the corresponding CT value as the ordinate. The copy number of the sample was calculated according to the corresponding CT of the positive sample and the standard curve, and the percentage of inhibition rate was calculated as follows: • % Inhibition=100-100*(sample HBV copy number−high concentration reference compound column HBV copy number)/DMSO column HBV copy number−high concentration reference compound column HBV copy number).", "units": {"EC50": "nM"}, "values": [{"compound": "CCOC(=O)C1=C(CN2CCN3C(=O)N(C45CCC(C(=O)O)(CC4)CC5)C[C@@H]3C2)NC(c2nccs2)=N[C@H]1c1ccc(F)c(F)c1C", "note": "[Compound 54]", "EC50": 3}, {"compound": "CCOC(=O)C1=C(CN2CCN3C(=O)N(C45CC(N6CCCS6(=O)=O)(C4)C5)C[C@@H]3C2)NC(c2nccs2)=N[C@H]1c1cccc(F)c1C", "note": "[Compound 19, Ethyl (S)-6-(((S)-2-(3-(1,1-Dioxidoisothiazolidin-2-Yl)Bicyclo[1.1.1]Pentan-1-Yl)-3-Oxohexahydroimidazo[1,5-a]Pyrazin-7(1H)-Yl)Methyl)-4-(3-Fluoro-2-Methylphenyl)-2-(Thiazol-2-Yl)-1,4-Dihydropyrimidine-5-Carboxylate]", "EC50": 3}, {"compound": "CCOC(=O)C1=C(CN2CCN3C(=O)N(C45CC(CNS(C)(=O)=O)(C4)C5)C[C@@H]3C2)NC(c2nccs2)=N[C@H]1c1cccc(F)c1C", "note": "[Compound 14, Ethyl (S)-4-(3-Fluoro-2-Methylphenyl)-6-(((S)-2-(3-(Methylsulfonamidomethyl)Bicyclo[1.1.1]Pentan-1-Yl)-3-Oxohexahydroimidazo[1,5-a]Pyrazin-7(1H)-Yl)Methyl)-2-(Thiazol-2-Yl)-1,4-Dihydropyrimidine-5-Carboxylate]", "EC50": 4}, {"compound": "CCOC(=O)C1=C(CN2CCN3C(=O)N(C45CCC(CC(=O)O)(CC4)C5)C[C@@H]3C2)NC(c2nccs2)=N[C@H]1c1cccc(F)c1C", "note": "[Compound 63, 2-(4-((S)-7-(((S)-5-(Ethoxycarbonyl)-6-(3-Fluoro-2-Methylphenyl)-2-(Thiazol-2-Yl)-3,6-Dihydropyrimidin-4-Yl)Methyl)-3-Oxohexahydroimidazo[1,5-a]Pyrazin-2(3H)-Yl)Bicyclo[2.2.1]Heptan-1-Yl)Acetic Acid]", "EC50": 26}, {"compound": "CCOC(=O)C1=C(CN2CCN3C(=O)N(C45CC(N(C)C(C)=O)(C4)C5)C[C@@H]3C2)NC(c2nccs2)=N[C@H]1c1cccc(F)c1C", "note": "[Compound 12, Ethyl (S)-4-(3-Fluoro-2-Methylphenyl)-6-(((S)-2-(3-(N-Methylacetamido)Bicyclo[1.1.1]Pentan-1-Yl)-3-Oxohexahydroimidazo[1,5-a]Pyrazin-7(1H)-Yl)Methyl)-2-(Thiazol-2-Yl)-1,4-Dihydropyrimidine-5-Carboxylate]", "EC50": 3}, {"compound": "CCOC(=O)C1=C(CN2CCN3C(=O)N(C45CC(C(C)(C)C(=O)O)(C4)C5)C[C@@H]3C2)NC(c2nccs2)=N[C@H]1c1cccc(F)c1C", "note": "[Compound 42]", "EC50": 11}, {"compound": "CCOC(=O)C1=C(CN2CCN3C(=O)N(C45CC(N6CCCC6=O)(C4)C5)C[C@@H]3C2)NC(c2nccs2)=N[C@H]1c1cccc(F)c1C", "note": "[Compound 13, Ethyl (S)-4-(3-Fluoro-2-Methylphenyl)-6-(((S)-3-Oxo-2-(3-(2-Oxopyrrolidin-1-Yl)Bicyclo[1.1.1]Pentan-1-Yl) Hexahydroimidazo[1,5-a]Pyrazin-7(1H)-Yl)Methyl)-2-(Thiazol-2-Yl)-1,4-Dihydropyrimidine-5-Carboxylate]", "EC50": 8}, {"compound": "CCOC(=O)C1=C(CN2CCN3C(=O)N(C45CC(NS(C)(=O)=O)(C4)C5)C[C@@H]3C2)NC(c2nccs2)=N[C@H]1c1cccc(F)c1C", "note": "[Compound 9, Ethyl (S)-4-(3-Fluoro-2-Methylphenyl)-6-(((S)-2-(3-(Methylsulfonamido)Bicyclo[1.1.1]Pentan-1-Yl)-3-Oxohexahydroimidazo[1,5-a]Pyrazin-7(1H)-Yl)Methyl)-2-(Thiazol-2-Yl)-1,4-Dihydropyrimidine-5-Carboxylate]", "EC50": 4}, {"compound": "CCOC(=O)C1=C(CN2CCN3C(=O)N(C45CCC(CC(=O)O)(CC4)C5)C[C@@H]3C2)NC(c2nccs2)=N[C@H]1c1ccc(F)cc1C", "note": "[Compound 64, 2-(4-((S)-7-(((S)-5-(Ethoxycarbonyl)-6-(4-Fluoro-2-Methylphenyl)-2-(Thiazol-2-Yl)-3,6-Dihydropyrimidin-4-Yl)Methyl)-3-Oxohexahydroimidazo[1,5-a]Pyrazin-2(3H)-Yl)Bicyclo[2.2.1]Heptan-1-Yl)Acetic Acid]", "EC50": 57}, {"compound": "CCOC(=O)C1=C(CN2CCN3C(=O)N(C45CC(CN6CCCC6=O)(C4)C5)C[C@@H]3C2)NC(c2nccs2)=N[C@H]1c1cccc(F)c1C", "note": "[Compound 25, Ethyl (S)-4-(3-Fluoro-2-Methylphenyl)-6-(((S)-3-Oxo-2-(3-((2-Oxopyrrolidin-1-Yl)Methyl)Bicyclo[1.1.1]Pentan-1-Yl)Hexahydroimidazo[1,5-a]Pyrazin-7(1H)-Yl)Methyl)-2-(Thiazol-2-Yl)-1,4-Dihydropyrimidine-5-Carboxylate]", "EC50": 2}, {"compound": "CCOC(=O)C1=C(CN2CCN3C(=O)N(C45CC(NS(N)(=O)=O)(C4)C5)C[C@@H]3C2)NC(c2nccs2)=N[C@H]1c1cccc(F)c1C", "note": "[Compound 21, Ethyl (S)-4-(3-Fluoro-2-Methylphenyl)-6-(((S)-3-Oxo-2-(3-(Sulfamoylamino)Bicyclo[1.1.1]Pentan-1-Yl)Hexahydroimidazo[1,5-a]Pyrazin-7(1H)-Yl)Methyl)-2-(Thiazol-2-Yl)-1,4-Dihydropyrimidine-5-Carboxylate]", "EC50": 15}, {"compound": "COC(=O)C1=C(CN2CCN3C(=O)N(C45CC(CC(=O)O)(C4)C5)C[C@@H]3C2)NC(c2nccs2)=N[C@H]1c1ccc(F)cc1Br", "note": "[Compound 39, 2-(3-((S)-7-(((R)-6-(2-Bromo-4-Fluorophenyl)-5-(Methoxycarbonyl)-2-(Thiazol-2-Yl)-3,6-Dihydropyrimidin-4-Yl)Methyl)-3-Oxohexahydroimidazo[1,5-a]Pyrazin-2 (3H)-Yl)Bicyclo[1.1.1]Pentane-1-Yl)Acetic Acid]", "EC50": 32}, {"compound": "CCOC(=O)C1=C(CN2CCN3C(=O)N(C45CC(CC(=O)O)(C4)C5)C[C@@H]3[C@H]2COC)NC(c2nccs2)=N[C@H]1c1cccc(F)c1C", "note": "[Compound 43, 2-(3-((8S,8aR)-7-(((S)-5-(Ethoxycarbonyl)-6-(3-Fluoro-2-Methylphenyl)-2-(Thiazol-2-Yl)-3,6-Dihydropyrimidin-4-Yl)Methyl)-8-(Methoxymethyl)-3-Oxohexahydroimidazo[1,5-a]Pyrazin-2(3H)-Yl)Bicyclo[1.1.1]Pentan-1-Yl)Acetic Acid]", "EC50": 197}, {"compound": "CCOC(=O)C1=C(CN2CCN3C(=O)N(C45CC(NC(C)=O)(C4)C5)C[C@@H]3C2)NC(c2nccs2)=N[C@H]1c1cccc(F)c1C", "note": "[Compound 10, Ethyl (S)-6-(((S)-2-(3-Acetamidobicyclo[1.1.1]Pentan-1-Yl)-3-Oxohexahydroimidazo[1,5-a]Pyrazin-7(1H)-Yl)Methyl)-4-(3-Fluoro-2-Methylphenyl)-2-(Thiazol-2-Yl)-1,4-Dihydropyrimidine-5-Carboxylate]", "EC50": 8}, {"compound": "CCOC(=O)C1=C(CN2CCN3C(=O)N(C45CC(CC#N)(C4)C5)C[C@@H]3C2)NC(c2nccs2)=N[C@H]1c1cccc(F)c1C", "note": "[Compound 20, Ethyl (S)-6-(((S)-2-(3-(Cyanomethyl)Bicyclo[1.1.1]Pentan-1-Yl)-3-Oxohexahydroimidazo[1,5-a]Pyrazin-7 (1H)-Yl)Methyl)-4-(3-Fluoro-2-Methylphenyl)-2-(Thiazol-2-Yl)-1,4-Dihydropyrimidine-5-Carboxylate]", "EC50": 3}, {"compound": "CCOC(=O)C1=C(CN2CCN3C(=O)N(C45CC(C(OC)C(=O)O)(C4)C5)C[C@@H]3C2)NC(c2nccs2)=N[C@H]1c1cccc(F)c1C", "note": "(stereo partly drawn) [Compound 51, 2-(3-((S)-7-(((S)-5-(Ethoxycarbonyl)-6-(3-Fluoro-2-Methylphenyl)-2-(Thiazol-2-Yl)-3,6-Dihydropyrimidin-4-Yl)Methyl)-3-Oxohexahydroimidazo[1,5-a]Pyrazin-2(3H)-Yl)Bicyclo[1.1.1]Pentan-1-Yl)-2-Methoxyacetic Acid]", "EC50": 139}]}]}
